Data set [1] concerns FR-negative human lung carcinoma A549 cells. Put plainly: cells. The format is cell-based. The note with it: for pIC50: read-out: IC50, Inhibition of Cell Growth by the PrestoBlue Method; for inhibition at 10 µM: read-out: Percentage inhibition at the highest concentration tested (10 μM). The protocol:
(§1) Folate receptor (FR)-positive KB cells (Human) from European Collection of Cell Cultures (ECACC) [Catalogue #94050408] or FR-negative human lung carcinoma A549 cells from American Type Culture Collection (ATCC) [Catalogue # CCL-185] were maintained in T75 flasks in folic acid-free RPMI 1640 medium (Invitrogen, catalogue no. 27016021) containing 10% fetal bovine serum (FBS; Invitrogen, catalogue no. 16140-071) and penicillin/streptomycin (Invitrogen, catalogue no. 15140-122) at 37° C., 5% CO2.
(§2) Cells were harvested from their maintenance cultures and seeded in 96-well plates at a density of 10000 cells per well in 100 μL folic acid-free RPMI 1640 medium and incubated at 37° C., 5% CO2 for 20-24 hours. Thirty minutes prior to compound treatment, spent medium was removed and replaced with 100 μL fresh folic acid-free RPMI 1640 medium either as such, or supplemented with 100 μmol/L folic acid. The test compounds were diluted to three times their desired final concentrations in the culture medium from their DMSO stocks. […] Following compound treatment, the cells were washed thrice with 100 μL medium and incubated with 180 μL fresh medium for 72 hours. To assess cell viability, 20 μL of PrestoBlue reagent (Invitrogen, catalogue # A-13261) was added to the wells and the plates were further incubated for 1 hour at 37° C. The PrestoBlue reagent contains a cell-permeant dye, resazurin, which is blue in color and virtually nonfluorescent. When added to cells, it is reduced by the mitochondrial enzymes in viable cells to red, highly fluorescent resorufin. Resazurin reduction is proportional to the number of metabolically active cells and therefore can be measured quantitatively. Following incubation with the PrestoBlue reagent for 1 hour, fluorescence corresponding to the resorufin dye was read on a Synergy 4 multimode microplate reader (Biotek Instruments) with the excitation and emission wavelengths set at 540 nm and 590 nm respectively. The data was analysed using XLFit and the percentage inhibition of cell proliferation was calculated.

The test system of data set [2] is Folate receptor (FR)-positive KB cells. Put plainly: cells. The note with it: for pIC50: read-out: IC50, Inhibition of Cell Growth by the PrestoBlue Method; for inhibition at 10 µM: KB, read-out: Percentage inhibition at the highest concentration tested (10 μM). The format is cell-based, Human. The protocol: as §1, §2
The nature of data set [3]: Cleavage study of silyl conjugates at pH 7.4 (THF:0.01 M PBS buffer, 37° C.). The format is physicochemical. The settings on record: THF:0.01 M PBS buffer (pH 7.4), 37° C., over 20 hours. The protocol: To study the release properties of the silyl conjugates, the conjugates were subject to hydrolysis conditions at both pH 7.4 and pH 4.5 to simulate blood and endosomes/lysosome environments, respectively.
Example 12 and Example 15 were dissolved in THF:0.01 M PBS buffer (pH 7.4) and heated to 37° C. with stirring for over 20 hours. […] Additionally, Example 11 was trapped with methyl-3-mercaptopropionate to approximate a bioconjugate.

[4] abbreviates: Homo sapiens, No FA, incubation 2 h.
The mark [5] stands for this setting: Homo sapiens, No FA, incubation 4 h.
Setting [6] is: Homo sapiens, No FA, incubation 8 h.
Where [7] appears, read: Homo sapiens, No FA, incubation 16 h.

pIC50: −log10 of the molar value. Structures can show the parent of a compound that is named as a salt. Where two headings read alike, the source gives them in different places.

As a reminder, the pIC50 is the negative decadic logarithm of the IC50, by convention in mol/L.

Take `CC[C@]1(O)CC2CN(CCc3c([nH]c4ccccc34)[C@@](C(=O)OC)(c3cc4c(cc3OC)N(C)[C@H]3[C@@](O)(C(=O)OC)[C@H](O[Si]5(CCCCC(=O)NCCOCCOCCOCCNC(=O)CC[C@H](NC(=O)c6ccc(NCc7cnc8nc(N)nc(O)c8n7)cc6)C(=O)O)CCCCC5)[C@]5(CC)C=CCN6CC[C@]43[C@@H]65)C2)C1` (some centres unmarked) [Example 21]: the “Percentage inhibition at the highest concentration tested (10 μM)” value was 40% in data set [1] (100 μM FA, incubation 2 h); 8% in data set [1] (No FA, incubation 2 h); 24% in data set [1] (No FA, incubation 4 h); 47% in data set [1] (No FA, incubation 8 h). Further, the negative-log IC50 (pIC50) in data set [1] (100 μM FA, incubation 2 h) was below 5.00; in data set [1] (100 μM FA, incubation 4 h), 5.07; in data set [1] (100 μM FA, incubation 8 h) it was 5.28; in data set [1] (100 μM FA, incubation 16 h) it was 5.74; in data set [1] (No FA, incubation 2 h) it was below 5.00; in data set [1] (No FA, incubation 4 h), below 5.00. Besides, the pIC50 in data set [1] (No FA, incubation 8 h) was below 5.00; in data set [1] (No FA, incubation 16 h), 5.36; in data set [2] (100 μM FA, incubation 2 h), 5.22; in data set [2] (100 μM FA, incubation 4 h) it was 5.40; in data set [2] (100 μM FA, incubation 8 h), 5.51; in data set [2] (100 μM FA, incubation 16 h) it was 5.77. Moreover, the pIC50 in data set [2] (No FA, incubation 2 h) is 5.39; in data set [2] (No FA, incubation 4 h), 5.51; in data set [2] (No FA, incubation 8 h), 5.64; in data set [2] (No FA, incubation 16 h) it was 5.82.

In the case of `Nc1nc(O)c2nc(CNc3ccc(C(=O)N[C@@H](CCC(=O)NCCOCCOCCNC(=O)CCCC[Si]4(O)CCCCC4)C(=O)O)cc3)cnc2n1` [Compound Z, (S)-2-(4-(((2-amino-4-hydroxypteridin-6-yl)methyl)amino)benzamido)-20-(1-hydroxysilinan-1-yl)-5,16-dioxo-9,12-dioxa-6,15-diazaicosan-1-oic acid triethylammonium salt, reference compound], the pIC50 in data set [1] (100 μM FA, incubation 2 h) is below 5.00; in data set [1] (100 μM FA, incubation 4 h), below 5.00; in data set [1] (100 μM FA, incubation 8 h), below 5.00; in data set [1] (100 μM FA, incubation 16 h), below 5.00; in data set [1] (setting [4]), below 5.00; in data set [1] (setting [5]), below 5.00. Further, the pIC50 in data set [1] (setting [6]) is below 5.00; in data set [1] (setting [7]), below 5.00; in data set [2] (100 μM FA, incubation 2 h) it was below 5.00; in data set [2] (100 μM FA, incubation 4 h), below 5.00; in data set [2] (100 μM FA, incubation 8 h), below 5.00; in data set [2] (100 μM FA, incubation 16 h), below 5.00. Further, the negative logarithm of the IC50 (pIC50) in data set [2] (setting [4]), in data set [2] (setting [5]), in data set [2] (setting [6]) and in data set [2] (setting [7]) was below 5.00 in each case. The inhibition at 10 µM in data set [1] (Homo sapiens, A549, 2 h, 100 μM FA, incubation 2 h) was 9%; in data set [1] (Homo sapiens, A549, 2 h, No FA, incubation 2 h) it was 7%; in data set [1] (Homo sapiens, A549, 4 h, 100 μM FA, incubation 4 h), at most 0%; in data set [1] (Homo sapiens, A549, 4 h, No FA, incubation 4 h), at most 0%; in data set [1] (Homo sapiens, A549, 8 h, 100 μM FA, incubation 8 h), at most 0%; in data set [1] (Homo sapiens, A549, 8 h, No FA, incubation 8 h), at most 0%. The inhibition at 10 µM in data set [1] (Homo sapiens, A549, 16 h, 100 μM FA, incubation 16 h) was 3.5%; in data set [1] (Homo sapiens, A549, 16 h, No FA, incubation 16 h), at most 0%; in data set [2] (Homo sapiens, 2 h, 100 μM FA, incubation 2 h), 1%; in data set [2] (Homo sapiens, 2 h, No FA, incubation 2 h) it was at most 0%; in data set [2] (Homo sapiens, 4 h, 100 μM FA, incubation 4 h) it was at most 0%; in data set [2] (Homo sapiens, 4 h, No FA, incubation 4 h), at most 0%. Moreover, the inhibition at 10 µM in data set [2] (Homo sapiens, 8 h, 100 μM FA, incubation 8 h) was at most 0%; in data set [2] (Homo sapiens, 8 h, No FA, incubation 8 h) it was at most 0%; in data set [2] (Homo sapiens, 16 h, 100 μM FA, incubation 16 h) it was 2%; in data set [2] (Homo sapiens, 16 h, No FA, incubation 16 h), 1%.

For the molecule `CC[C@]1(O)CC2CN(CCc3c([nH]c4ccccc34)[C@@](C(=O)OC)(c3cc4c(cc3OC)N(C)[C@H]3[C@@](O)(C(=O)OC)[C@H](O[Si]5(CCCCC(=O)OCc6ccccc6)CCCC5)[C@]5(CC)C=CCN6CC[C@]43[C@@H]65)C2)C1` (stereo partly drawn) [Example 12, (3aR,3a^1R,4R,5S,10bR)-methyl 4-((1-(5-(benzyloxy)-5-oxopentyl)silolan-1-yl)oxy)-3a-ethyl-9-((5S,7R,9S)-5-ethyl-5-hydroxy-9-(methoxycarbonyl)-2,4,5,6,7,8,9,10-octahydro-1H-3,7-methano[1]azacycloundecino[5,4-b]indol-9-yl)-5-hydroxy-8-methoxy-6-methyl-3a,3a^1,4,5,5a,6,11,12-octahydro-1H-indolizino[8,1-cd]carbazole-5-carboxylate], the “hydrolysis (e.g. parent vinca) at pH 7.4” value in data set [3] is recorded as “No evidence of hydrolysis”.

Regarding `CC[C@]1(O)C[C@H]2CN(CCc3c([nH]c4ccccc34)[C@@](C(=O)OC)(c3cc4c(cc3OC)N(C)[C@@H]3C45CCN4CC=C[C@](CC)([C@H]45)[C@@H](O)[C@]3(O)C(=O)OC)C2)C1` (some centres unmarked) [4-desacetylvinblastine, reference compound], the pIC50 in data set [1] (No FA, incubation 2 h) was 5.34; in data set [1] (No FA, incubation 4 h) it was 6.20; in data set [1] (No FA, incubation 8 h), 6.89; in data set [1] (No FA, incubation 16 h), 7.24; in data set [2] (No FA, incubation 2 h), 7.35; in data set [2] (No FA, incubation 4 h) it was 8.00. The pIC50 is 8.70 in data set [2] (No FA, incubation 8 h) and 8.52 in data set [2] (No FA, incubation 16 h).

For `CCC1(O)CC2CN(CCc3c([nH]c4ccccc34)C(C(=O)OC)(c3cc4c(cc3OC)N(C)C3C(O)(C(=O)OC)C(O[Si]5(CCCCC(=O)NCCOCCOCCNC(=O)CCC(NC(=O)c6ccc(NCc7cnc8nc(N)nc(O)c8n7)cc6)C(=O)O)CCCCC5)C5(CC)C=CCN6CCC43C65)C2)C1` (centres unmarked) [Example 20], the “Percentage inhibition at the highest concentration tested (10 μM)” value in data set [1] (100 μM FA, incubation 2 h) is 44%; in data set [1] (No FA, incubation 2 h), 20%; in data set [1] (No FA, incubation 4 h), 46%. Also, the pIC50 in data set [1] (100 μM FA, incubation 2 h) is below 5.00; in data set [1] (100 μM FA, incubation 4 h), 5.18; in data set [1] (100 μM FA, incubation 8 h) it was 5.39; in data set [1] (100 μM FA, incubation 16 h), 5.85; in data set [1] (No FA, incubation 2 h), below 5.00; in data set [1] (No FA, incubation 4 h) it was below 5.00. The pIC50 in data set [1] (No FA, incubation 8 h) was 5.17; in data set [1] (No FA, incubation 16 h) it was 5.85; in data set [2] (100 μM FA, incubation 2 h), 5.38; in data set [2] (100 μM FA, incubation 4 h), 5.47; in data set [2] (100 μM FA, incubation 8 h), 5.51; in data set [2] (100 μM FA, incubation 16 h), 5.82. Besides, the pIC50 in data set [2] (No FA, incubation 2 h) is 5.46; in data set [2] (No FA, incubation 4 h) it was 5.59; in data set [2] (No FA, incubation 8 h), 5.74; in data set [2] (No FA, incubation 16 h), 6.52.

(Values after patent US9352049B2, “Ligand-therapeutic agent conjugates, silicon-based linkers, and methods for making and using them” (Albany Molecular Research, Inc., priority 2013, dated 2016).)
